Laboratory results from patent publication USRE48097E1, “Cephem compounds, their production and use” (priority 2015, dated 2020).
Like-named read-outs stand apart in the source and are kept apart here.

Columns and labels:
E. cloacae 551 = experiment: MIC against E. cloacae 551; format: cell-based; conditions: Table 2, E. cloacae 551, Caz R, IMP S
Description: (§1) Without limitation, the present cephem compounds alone, or in combination with one or more β-lactamase inhibitors, may provide improved antibacterial efficacy, particularly in antibiotic-resistant bacterial strains. It is believed that the present compounds may be structurally different from known compounds and, as a result, may be more basic in nature. It is an advantage that the present compounds may extend the spectrum of effective bacterial compounds, particularly against previously-resistant bacteria (e.g. ESKAPE organisms), and/or gram negative bacteria, without significant side effects. In a preferred embodiment, the present cephem compound may comprise reference compound ceftazidime, which may be used alone, or in combination with one or more β-lactamase inhibitors, such as NXL-104. As shown, the foregoing composition was tested for minimum inhibitory concentration (MIC, μg/mL) against bacteria listed in Tables 2-3.

E. cloacae 2706 = experiment: MIC against E. cloacae 2706; format: cell-based; conditions: Table 3, E. cloacae 2706, VIM-1, KPC-3
Protocol: (§2) As shown, the foregoing composition was tested for minimum inhibitory concentration (MIC, μg/mL) against bacteria listed in Tables 2-3.

E. cloacae 2709 = experiment: MIC against E. cloacae 2709; format: cell-based; conditions: Table 3, E. cloacae 2709, KPC-3, VIM-1
Protocol: as §2

E. coli 4098 = experiment: MIC against E. coli 4098; format: cell-based; conditions: Table 2, E. coli 4098, CTX-M-15, TEM-1
Description: as §1

K. baumanii 4094 = experiment: MIC against K. baumanii 4094; format: cell-based; conditions: Table 2, K. baumanii 4094, OXA-51
Description: as §1

S. pneumoniae 2493 = experiment: MIC against S. pneumoniae 2493; format: cell-based; conditions: Table 2, S. pneumoniae 2493, Pen R
Description: as §1

K. baumanii 4095 = experiment: MIC against K. baumanii 4095; format: cell-based; conditions: Table 2, K. baumanii 4095, OXA-48
Description: as §1

E. coli 2671 = experiment: MIC against E. coli 2671; format: cell-based; conditions: Table 2, E. coli 2671, VIM-19
Description: as §1

K. pneumoniae 4109 = experiment: MIC against K. pneumoniae 4109; format: cell-based; conditions: Table 2, K. pneumoniae 4109, SHV-1, SHV-12
Description: as §1

S. aureus 3144 = experiment: MIC against S. aureus 3144; format: cell-based; conditions: Table 2, S. aureus 3144, MSSA
Description: as §1

K. pneumoniae 2713 = experiment: MIC against K. pneumoniae 2713; format: cell-based; conditions: Table 3, K. pneumoniae 2713, KPC-3, VIM-1
Protocol: as §2

M. morganii 2409 = experiment: MIC against M. morganii 2409; format: cell-based; conditions: Table 2, M. morganii 2409, High level cephase, β-Lactamase producing
Description: as §1

S. pneumoniae ATCC 6301 = experiment: MIC against S. pneumoniae ATCC 6301; format: cell-based; conditions: Table 2, S. pneumoniae ATCC 6301, Pen S
Description: as §1

S. pneumoniae 2392 = experiment: MIC against S. pneumoniae 2392; format: cell-based; conditions: Table 2, S. pneumoniae 2392, Pen R
Description: as §1

E. coli 102 = experiment: MIC against E. coli 102; format: cell-based; conditions: Table 2, E. coli 102, TEM-1
Description: as §1

K. pneumoniae 4088 = experiment: MIC against K. pneumoniae 4088; format: cell-based; conditions: Table 3, K. pneumoniae 4088, KPC-3
Protocol: as §2

K. pneumoniae 4104 = experiment: MIC against K. pneumoniae 4104; format: cell-based; conditions: K. pneumoniae 4104, KPC-3, TEM-1
Protocol: as §2

K. pneumoniae 4108 = experiment: MIC against K. pneumoniae 4108; format: cell-based; conditions: K. pneumoniae 4108, KPC-3, TEM-166, SHV-12, SHV-141
Protocol: as §2

E. coli 2666 = experiment: MIC against E. coli 2666; format: cell-based; conditions: Table 3, E. coli 2666, KPC-2
Protocol: as §2

E. cloacae596 = experiment: MIC against E. cloacae596; format: cell-based, E. cloacae; conditions: Table 2, E. cloacae596, Caz R, IMP S
Description: as §1

E. coli 4101 = experiment: MIC against E. coli 4101; format: cell-based; conditions: Table 2, E. coli 4101, CTX-M-14, TEM-1
Description: as §1

S. pneumoniae 2492 = experiment: MIC against S. pneumoniae 2492; format: cell-based; conditions: Table 2, S. pneumoniae 2492, Pen R
Description: as §1

K. pneumoniae 4105 = experiment: MIC against K. pneumoniae 4105; format: cell-based; conditions: K. pneumoniae 4105, KPC-3, TEM-1, SHV-11
Protocol: as §2

[1] = Enterobacter cloacae, alone, read-out: MIC
[2] = Escherichia coli, alone, read-out: MIC
[3] = Streptococcus pneumoniae, alone, read-out: MIC
[4] = Klebsiella pneumoniae, alone, read-out: MIC
[5] = Table 2, in combination with NXL-104
[6] = Table 3, in combination with NXL-104

Measured: MIC

CC(C)(O/N=C(\C(=O)N[C@@H]1C(=O)N2C(C(=O)[O-])=C(C[n+]3ccc4c(ccn4Cc4cc(C(=N)N)cs4)c3)CS[C@H]12)c1csc(N)n1)C(=O)O [Example 5, (6R,7R)-7-{[(2Z)-2-(2-Amino-1,3-thiazol-4-yl)-2-{[(2-carboxypropan-2-yl)oxy]imino}acetyl]amino}-3-({1-[(4-carbamimidoylthiophen-2-yl)methyl]-1H-pyrrolo[3,2-c]pyridin-5-ium-5-yl}methyl)-8-oxo-5-thia-1-azabicyclo[4.2.0]oct-2-ene-2-carboxylate]
≤0.06 µg/mL: S. pneumoniae ATCC 6301; in combination with NXL-104 | E. coli 102; in combination with NXL-104
32 µg/mL: E. cloacae 551; [1] | E. cloacae 2706; in combination with NXL-104 | E. cloacae 2709; [1] | K. pneumoniae 4088; [4] | K. pneumoniae 4104; Klebsiella pneumoniae, 4104, Table 2, alone, read-out: MIC | K. pneumoniae 4108; Klebsiella pneumoniae, 4108, Table 3, alone, read-out: MIC | K. pneumoniae 4105; Klebsiella pneumoniae, 4105, Table 2, alone, read-out: MIC | K. pneumoniae 4105; Klebsiella pneumoniae, 4105, Table 3, alone, read-out: MIC
0.12 µg/mL: E. coli 4098; in combination with NXL-104 | K. pneumoniae 4109; in combination with NXL-104 | E. coli 4101; in combination with NXL-104
1.00 µg/mL: E. cloacae 551; in combination with NXL-104 | S. pneumoniae 2392; in combination with NXL-104 | K. pneumoniae 4105; [5]
2.00 µg/mL: S. pneumoniae 2493; in combination with NXL-104 | K. pneumoniae 4104; [5] | S. pneumoniae 2492; in combination with NXL-104
0.25 µg/mL: K. baumanii 4095; alone, read-out: MIC | K. baumanii 4095; in combination with NXL-104 | E. cloacae596; in combination with NXL-104
16 µg/mL: K. baumanii 4094; alone, read-out: MIC | E. coli 2671; [2] | M. morganii 2409; Morganella morganii, alone, read-out: MIC | K. pneumoniae 4104; Klebsiella pneumoniae, 4104, Table 3, alone, read-out: MIC | E. coli 2666; [2]
8 µg/mL: K. pneumoniae 4109; [4] | K. pneumoniae 4108; Klebsiella pneumoniae, 4108, Table 2, alone, read-out: MIC | E. cloacae596; [1]
≤ 0.06 µg/mL: S. pneumoniae ATCC 6301; Streptococcus pneumoniae, ATCC6301, alone, read-out: MIC | E. coli 102; [2]
1 µg/mL: K. pneumoniae 4108; [6] | E. coli 2666; in combination with NXL-104 | K. pneumoniae 4105; [6]
4 µg/mL: E. cloacae 2709; in combination with NXL-104 | S. aureus 3144; Staphylococcus aureus, alone, read-out: MIC
4.00 µg/mL: K. baumanii 4094; in combination with NXL-104 | S. aureus 3144; in combination with NXL-104
0.5 µg/mL: K. pneumoniae 4104; [6] | E. coli 4101; [2]
0.50 µg/mL: M. morganii 2409; in combination with NXL-104 | K. pneumoniae 4108; [5]
16.00 µg/mL: E. coli 2671; in combination with NXL-104
> 32 µg/mL: E. cloacae 2706; [1] | E. coli 4098; [2] | K. pneumoniae 2713; [4]
2 µg/mL: S. pneumoniae 2493; [3] | K. pneumoniae 2713; in combination with NXL-104 | S. pneumoniae 2392; [3] | K. pneumoniae 4088; in combination with NXL-104 | S. pneumoniae 2492; [3]
